Several values for one entry are separate records, joined by “and”; a condition that tells them apart may be missing. Equal entries are not always repeated. Entries after “also recorded” stand apart in the source; their conditions may differ. Where two headings read alike, the source gives them in different places.

This test deals with T1, GLUT3S66Y (Homo sapiens, UniProt P11169, S66Y).
T1 construct: expressed in transfected cells; host or cells: Saccharomyces cerevisiae hxt0 strain EBY.S7 (fgy1)
T1 sequence (P11169 1-496 S66Y): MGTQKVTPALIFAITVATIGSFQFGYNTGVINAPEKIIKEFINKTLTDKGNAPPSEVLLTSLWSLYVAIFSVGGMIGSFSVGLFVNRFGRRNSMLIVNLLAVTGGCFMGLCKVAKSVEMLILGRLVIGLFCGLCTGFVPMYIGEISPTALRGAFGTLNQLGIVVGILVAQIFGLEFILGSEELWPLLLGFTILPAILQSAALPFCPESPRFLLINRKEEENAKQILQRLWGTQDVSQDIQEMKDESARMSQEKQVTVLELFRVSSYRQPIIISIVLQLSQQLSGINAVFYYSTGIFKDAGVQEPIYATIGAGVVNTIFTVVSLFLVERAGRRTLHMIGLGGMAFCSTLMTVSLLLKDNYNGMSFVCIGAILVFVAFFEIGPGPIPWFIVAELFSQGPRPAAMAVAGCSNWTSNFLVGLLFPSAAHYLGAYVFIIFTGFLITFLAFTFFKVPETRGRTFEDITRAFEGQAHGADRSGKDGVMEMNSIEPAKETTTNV
Kind of test: Glucose transport assay, GLUT3S66Y expressed in hxt^0 yeast cells EBY.S7. It counts as cell-based. Conditions: for Inhibition mode in GLUT3: Dixon plots, versus glucose; for Ki: Ki for GLUT3 inhibition (Dixon plot), Dixon plots with GLUT3S66Y at 0.75, 1.50 and 3.00 mM glucose, competitive with glucose. From the text:
We determined GLUT3 transport activity by measuring the accumulation of radioactive glucose inside whole hxt^0 yeast cells (see “Materials and methods” for details). To select an appropriate substrate concentration for transport inhibition screening, we assessed the KM of glucose for GLUT3 in hxt^0 cells. […] Indeed, functional expression of human GLUTs in hxt^0 cells often requires mutations in genes related to yeast lipid composition[65],[73] as well as single-site mutations that may favor the outward-facing conformation of the transporters[65]–[67].
The plasmids containing functional constructs of GLUT1-5 were transformed in the corresponding hxt^0 strains[65],[66],[73] (EBY.VW4000 for GLUT5S72Y, EBY.S7 for GLUT1, GLUT2∆loopS_Q455R, GLUT3 and GLUT3S66Y, and SDY.022 for GLUT4) and grown on 2% (w/v) agar plates of the respective media supplemented with 1% (w/v) maltose. An initial culture of ~ 10 ml was started with a few colonies and grown for 2–3 days if the media was SC-uracil with 1% (w/v) maltose (GLUT1, GLUT3, GLUT4) or 1–2 days if the media was YEP with 1% (w/v) maltose and 100 µg/ml geneticin G418 (GLUT2∆loopS_Q455R and GLUT5S72Y). Cells were washed once in the corresponding media in which maltose was substituted with 0.1–2% hexose substrate for the expressing GLUT (i.e., SC-uracil, 2% (w/v) glucose for GLUT1; SC-uracil, 0.2% (w/v/) glucose for GLUT3 and GLUT4; YEP, 0.2% (w/v) glucose, 100 µg/ml geneticin G418 for GLUT2∆loopS_Q455R, and YEP, 2% (w/v) fructose for GLUT5 S72Y). Then, cells were transferred in the same media so that OD600nm ~ 0.5 and grown further for 1–2 days.
For transport activity assay, cells in the hexose media were centrifuged (1000×g, 5 min, room temperature), washed once with PBS buffer (10 mM Na2HPO4, 1.8 mM KH2PO4, 2.7 mM KCl, 137 mM NaCl, pH 7.4), and resuspended in PBS buffer at an OD600nm ~ 10; each assay contained 100 µl of this cell solution. Transport activity assay was started by adding C^14-hexose at a substrate concentration corresponding to the respective KM (5 mM glucose for GLUT1 or GLUT4, 3 mM glucose for GLUT3 or 1.5 mM glucose for GLUT3S66Y, 15 mM glucose for GLUT2∆loopS_Q455R, and 10 mM fructose for GLUT5S72Y); for determining the glucose KM in GLUT3 and GLUT3S66Y, substrate concentrations were varied accordingly. […] The filtration membranes were transferred into scintillation vials with 10 ml of Scintillation Solution (BioSafeII; Research Products International, Mount Prospect, IL, USA), and vortexed briefly. The radioactivity was determined with a scintillation counter (Tri-carb 2900TR, Perkin Elmer, USA). As all compounds were solubilized in dimethyl sulfoxide (DMSO), controls for determining the relative transport activity included 1% (v/v) DMSO to represent DMSO used as vehicle control (i.e., 100% activity), and known inhibitors at saturating concentrations, 200 µM phloretin for GLUT1-4[69],[82], and 100 µM N-[4-(methylsulfonyl)-2-nitrophenyl]-1,3-benzodioxol-5-amine (MSNBA) for GLUT5 (i.e., complete inhibition). […] Data were analyzed with GraphPad Prism (San Diego, CA, USA).
Supplementary Figure S3. Dose response curves for G3iA-G3iF inhibition of GLUT3S66Y. […] Error bars represent standard deviations from at least three independent measurements. Graphs, data analysis, and IC50 values were generated with GraphPad (www.graphpad.com).
Inhibition mode of G3iA, G3iC, and G3iE in GLUT3. (A-C) Dixon plots^2 for GLUT3S66Y inhibition by G3iA, G3iC, and G3iE, respectively.

As usually defined, the IC50 is the concentration needed to halve the response being measured. Usually Ki stands for the dissociation constant of the complex between target and ligand, obtained from inhibition or displacement. High values mean lower affinity, low ones higher affinity. With `Cc1cccnc1OC1CCN(c2cc(N3CCCC3CO)ncn2)CC1` (stereo not shown) [G3iC], the IC50 is 10.1 ± 2.1 µM, the “Inhibition mode in GLUT3” value was “competitive inhibition with glucose; also recorded: competitive inhibition mode” and the Ki stood at 5.83 ± 0.3 µM.

On to `O=C(Nc1cccc(Cl)c1)c1cccc(NC(=O)c2cccc([N+](=O)[O-])c2)c1` [G3iE, N-{3-[(3-chloroanilino)carbonyl]phenyl}-3-nitrobenzamide], for which it took 20.6 ± 2.4 µM to reach half-maximal inhibition (IC50), the “Inhibition mode in GLUT3” value is given as “competitive inhibition with glucose; also recorded: competition with glucose; also recorded: competitive inhibition mode” and the affinity corresponds to a Ki of 12.3 ± 0.9 µM.

For the molecule `Cc1cc(NC(=O)CCC2Cc3ccccc3NC2=O)nc(-c2ccccc2)n1` (stereo not shown) [G3iD], the concentration for half-maximal inhibition (IC50) was found to be 12.6 ± 1.6 µM.

With `COc1ccccc1-n1c(/C=C/c2ccc(O)cc2)nc2ccc(Br)cc2c1=O` [G3iB, 6-bromo-2-[(E)-2-(4-hydroxyphenyl)ethenyl]-3-(2-methoxyphenyl)quinazolin-4(3H)-one], the IC50 (read-out: IC50 for GLUT3S66Y transport inhibition) is 9.62 ± 1.17 µM.

Consider `CC(=O)Nc1ccc(S(=O)(=O)Nc2ccc(Nc3cc(N(C)C)nc(C)n3)cc2)cc1` [G3iA, N-(4-{[(4-{[6-(dimethylamino)-2-methylpyrimidin-4-yl]amino}phenyl)amino]sulfonyl}phenyl)acetamide], for which the half-inhibitory concentration (IC50) came to 6.21 ± 0.95 µM; the “Inhibition mode in GLUT3” value is “competitive inhibition with glucose”; the inhibition constant Ki is 3.49 µM and ~3.5 µM. The “Inhibition mode in GLUT3” value (listed as G2iA) was “competitive inhibition mode”.

As for `Cc1ccccc1CN(Cc1nnc(C(C)(C)C)o1)c1ccc2nc(O)[nH]c2c1` [G3iF], the IC50 was 24.8 ± 6 µM.

The record behind these values is paper PMC8791944, “GLUT3 inhibitor discovery through in silico ligand screening and in vivo validation in eukaryotic expression systems” (Scientific Reports, 2022).
